Structures are written as SMILES.

Drawing on patent US5827887A, “Biphenyl compounds” (Roussel Uclaf, priority 1995, dated 1998), this text covers IC50 for five molecules.

The assay addresses T1, human prostate 5-α-reductase (PH6) (Homo sapiens, UniProt P31213).
T1 construct: Homogenates of human prostates were used, obtained by radical prostatectomies; from tissue; host or cells: human prostate (benign hyperplasia, radical prostatectomy), homogenate, 140,000 g pellet
T1 sequence (P31213 1-254): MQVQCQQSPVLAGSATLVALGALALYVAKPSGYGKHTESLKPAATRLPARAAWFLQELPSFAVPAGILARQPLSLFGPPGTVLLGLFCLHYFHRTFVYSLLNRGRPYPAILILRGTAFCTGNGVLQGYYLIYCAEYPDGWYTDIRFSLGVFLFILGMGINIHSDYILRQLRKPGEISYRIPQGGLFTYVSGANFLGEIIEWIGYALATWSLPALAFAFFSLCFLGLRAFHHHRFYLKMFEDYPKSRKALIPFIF
Put plainly: 5-α-reductase activity in vitro, HPLC of 5-α reduced metabolites of tritiated testosterone, homogenates of human prostates (PH6). Type of assay: biochemical. The conditions noted are these: human prostate homogenate; testosterone substrate; pH 5.5; 37° C., 30 minutes; read-out: IC50 of inhibition of the 5-α-reductase activity of the human prostate enzyme (PH6). As for the experimental part: The test for measuring the 5-α-reductase activity took place in vitro by incubating the enzyme and its substrate (testosterone) and measuring by HPLC chromatography the quantity of 5-α reduced metabolites formed (dihydro-testosterone (DHT) and 5-α-androstane-diol). Homogenates of human prostates were used, obtained by radical prostatectomies due to benign hyperplasia of the prostate (BHP): PH6.
The prostate was collected as soon as it left the operating theater suite and was packed in aluminum foil placed in a container filled with dry ice. In the laboratory, if the homogenate was not prepared immediately, the prostate could be kept at -80° C. The prostate was shredded over ice into very small pieces, which were homogenized in a medium A (20 mM of potassium phosphate, pH 6.5; 0.32M of sucrose; 1 mM of dithiotreitol (DTT); 50 uM NADPH), in a polytron, then in a Potter glass flask. After centrifuging at 140,000 g for 60 minutes at 4° C., the pellets obtained were suspended in 10 to 20 ml of medium B ([…] of potassium phosphate, pH 6.5; 20% of glycerol; 1 mM of dithiothreitol). The medium was distributed in Nunc tubes kept at -80° C. Determination of the proteins was carried out on a small amount of homogenate for its future use in the test and it was therefore assured of having at least 10 mg of proteins/ml of homogenate.
Incubation was carried out at a pH of 5.5 at the rate of 1 ml of medium/tube in the presence of citrate (normal medium and pH of the prostate).
1) Preparation of the substrate (S) which was the mixture of "unlabelled" testosterone and "tritiated" testosterone with an isotopic dilution of 100 in a trisodium citrate buffer pH 5.0
a) 40 mM of trisodium citrate buffer: 11.76 g of 3 Na-citrate, 2H2 O (Merk ref. Art 6448) were weighed and dissolved in 1 liter of distilled water (Milli-Q) and the solution was adjusted to pH of 5.0.
b) mixture of "unlabelled" testosterone and "tritiated testosterone with an isotopic dilution of 100: To obtain a solution of testosterone of 1 mM, 2.88 mg of "unlabelled" testosterone were weighed and dissolved in 10 ml of ethanol. This solution was diluted to 0.99/1000, that is 9.9 μl in 10 ml of citrate buffer (=10^-6 M solution). 9 μl of ^3 H-testosterone (NET-370) were added to 10 ml of the preceding solution (=isotopic dilution of 100). The substrate (S) was ready.
2) Preparation of enzyme+DTT+NADPH mixture
a) Potassium phosphate buffer, 40 mM, pH 6.5:
5.44 g de KH2 PO4 (Riedel de Haen ref. 30407) was weighed and dissolved in 1 liter of distilled water (Milli-Q) and the solution was adjusted to a pH of 6.5.
3.1 mg of DTT were weighed and dissolved in 1 ml of phosphate buffer.
8.33 mg of NADPH were weighed and dissolved in 1 ml of phosphate buffer.
d) enzyme+DTT+NADPH mixture (E):
For one test, 0.5 mg of proteins of prostate homogenate, 50 μl of DTT and 50 μl of NADPH were mixed together at 4° C. and the mixture was made up to 500 μl with the phosphate buffer.
3) Incubation (5α-reduction)
One tube was prepared for each test and 500 μl of (S) and 10 μl of inhibitor at the desired concentration (or ethanol for the controls) are put in each tube. The tubes containing mixture (S) and the flask containing mixture (E) were pre-incubated in a water bath for 3 to 5 minutes.
To start the reaction, 500 μl of E were transferred rapidly into each tube containing S+the inhibitor and the mixture was incubated at 37° C. with gentle stirring for 30 minutes. […]
Consider `O=C(COc1c(F)cc(-c2ccc(C(=O)O)cc2)cc1[N+](=O)[O-])NC(c1ccccc1)(c1ccccc1)c1ccccc1` [Example 6, 3'-fluoro-5'-nitro-4'-[2-oxo-2-[(tribenzyl)-amino]-ethoxy]-(1,1'-biphenyl)-4-carboxylic acid], for which the IC50 (in general, the concentration that gives 50% inhibition) came out at 36 nM.
To `CCc1cc(OCC(=O)N(C(C)C)C(C)C)ccc1-c1ccc(C(=O)O)cc1` [Example 11, 4'-(2-[bis-(isopropyl)-amino)-2-oxoethoxy]-2'-ethyl-(1,1'-biphenyl)-4-carboxylic acid] belongs 77 nM.
To `CC(C)N(C(=O)COc1c(F)cc(-c2ccc(C(=O)O)cc2)cc1[N+](=O)[O-])C(C)C` [Example 4, 4'-[2-[bis-(isopropyl)-amino]-2-oxoethoxy]-3'-fluoro-5'-nitro-(1,1'-biphenyl)-4-carboxylic acid] belongs 9.6 nM; to `CCc1cc(-c2ccc(C(=O)O)cc2)ccc1OCC(=O)N(C(C)C)C(C)C` [Example 12, 4'-[2-[bis-(isopropyl)-amino)-2-oxoethoxy]-3'-ethyl-(1,1'-biphenyl)-4-carboxylic acid], 2000 nM.
Take `O=C(COc1ccc(-c2ccc(C(=O)O)cc2)cc1)NC(c1ccccc1)(c1ccccc1)c1ccccc1` [Example 5, 4'-[2-oxo-2-([tribenzyl)-amino]-ethoxy]-(1,1'-biphenyl) -4-carboxylic acid]: the IC50 was 92 nM.
